Values quoted from earlier work, collected in patent publication US8137734B2, “Preparation of controlled release skeletal muscle relaxant dosage forms” (Aptalis Pharmatech, Inc., priority 2008, dated 2012).

## CN(C)CCC=C1c2ccccc2C=Cc2ccccc21 [Cyclobenzaprine]
After oral administration
  absorption: well absorbed
elimination
  half-life: one to three
